Experiment [1] has as its system Pseudomonas syringae pv. syringae KACC 10361. In kind it is cell-based. The note with it: liquid medium; Gram negative; FIG. 8.
Experiment [2] has as its system Bacillus subtillis ATCC 6501. Briefly: microbe, parasite or virus in culture. It counts as cell-based. The settings on record: ATCC6501, liquid YPD medium, OD540 up to 24 hours, read-out: minimal inhibitory concentration.
In experiment [3] the test system is Staphylococcus epidermidis KCTC 1917. In words: Antibacterial activity on solid agar medium 2. The settings on record: Gram positive, FIG. 7.
The subject of experiment [4] is Pseudomonas syringae pv. actinidae KACC 10659. In kind it is cell-based. The note with it: liquid medium; Gram negative; FIG. 8.
The subject of experiment [5] is Xanthomonas campestris KACC 10490. It counts as cell-based. The note with it: liquid medium; Gram negative; FIG. 8.
Experiment [6] deals with Ralstonia solanacearum KACC 10475. Briefly: microbe, parasite or virus in culture. It counts as cell-based.
Experiment [7] deals with Escherichia coli ATCC 8739. In words: Antibacterial activity on solid agar medium 2. The settings on record: Gram negative, FIG. 7.
Experiment [8] has as its system Staphylococcus aureus ATCC 6538. Briefly: Antibacterial activity on solid agar medium 2. The settings on record: Gram positive, FIG. 7.
Experiment [9] relates to Xanthomonas axonopodis pv. citri KACC 10443. Briefly: Growth inhibition in liquid medium 2. The note with it: Gram negative, FIG. 8. It counts as cell-based.
Experiment [10] has as its system Bacillus subtilis ATCC 6501. Briefly: Antibacterial activity on solid agar medium 2. The settings on record: Gram positive, FIG. 7.
A further experiment concerns Erwinia sp. KACC 10207. In kind it is cell-based. The note with it: liquid medium; Gram negative; FIG. 8.
Experiment [11] has as its system Pseudomonas syringae pv. sesami KACC 10649. In kind it is cell-based. The note with it: liquid medium; Gram negative; FIG. 8.
Experiment [12] concerns Corynebacterium glutamicum KACC 10784. It counts as cell-based. The note with it: liquid medium; Gram positive; FIG. 8.
In experiment [13] the test system is Listeria monocytogenes ATCC 19111. In words: Antibacterial activity on solid agar medium 2. The note with it: Gram positive, FIG. 7.
Experiment [14] has as its system Staphylococcus aureus KCTC 1621. Briefly: Antibacterial activity on solid agar medium (clear zone around filter paper). The note with it: 5 mg/spot, similar level with Bactroban (3 mg Mupirocin), FIG. 5.
The test system of experiment [15] is Salmonella typhimurium KCTC 2515. The experiment is described as above.

Each structure is given as a SMILES string.

Take `CCCCCCCC[C@H](O)/C=C/[C@@H](O)CCCCCC(=O)O` [DOD, 7,10-dihydroxy-8(E)-octadecenoic acid]: the growth inhibitory effect result in [1] is recorded as “had growth inhibitory effect”; in experiment [4], “had growth inhibitory effect”; in experiment [5] it was “had growth inhibitory effect”; in [6] (liquid medium, Gram negative, FIG. 8) it was “had growth inhibitory effect”; in experiment [9] it was “had growth inhibitory effect”; with Erwinia sp. KACC 10207 it was “had growth inhibitory effect”. For the same molecule, the growth inhibitory effect entry in experiment [11] and in experiment [12] was “had growth inhibitory effect” each time. Moreover, the MIC in experiment [2] is less than 125 mg/L; in [6] (Ralstonia solanacearum, KACC10475, 24 h, read-out: minimal inhibitory concentration), less than 125 mg/L. Further, the antibacterial activity entry was “exhibited antibacterial activity” in experiment [3]; “exhibited antibacterial activity” in [7]; “exhibited antibacterial activity” in experiment [8]; “exhibited antibacterial activity” in experiment [10]; “exhibited antibacterial activity” in experiment [13]; “exhibited antibacterial activity” in [15] (Gram negative, FIG. 7). The “antibacterial activity (clear zone)” value in [14] is “high antibacterial activity”; in experiment [15] (5 mg/spot, similar level with Bactroban (3 mg Mupirocin), FIG. 5), “high antibacterial activity”.

For the origin of these results see patent US8053473B2, “Antibacterial agent comprising 7, 10-dihydroxy-8(E)-octadecenoic acid” (Kyung Pook National University Industry-Academic …, priority 2007, dated 2011).
